The values that follow come from patent US6472526B1, “Imidazole derivatives having an inhibitory activity for farnesyl transferase and process for preparation thereof” (LG Chemical Ltd., priority 1997, dated 2002).

The target of experiment [1] is T1, Ras farnesyl transferase (Rattus norvegicus, UniProt Q02293+Q04631).
T1 construct: endogenous in cells; host or cells: Rat2 fibroblasts transformed with H-Ras or with an H-Ras/K-Ras C-terminus fusion
The experiment can be described thus: In vivo (cellular) inhibitory activity for Ras farnesyl transferase, Rat2 cell line transformed with fused protein of H-Ras substituted with polybasic lysine domain at C-terminus of K-Ras. The class given is cell-based. The conditions noted are these: Rat2 cell line transformed with H-Ras fused with polybasic lysine domain of K-Ras C-terminus; concentration inhibiting 50% of farnesyl bonding; read-out: K-Ras CIC50. The procedure, abridged:
(§1)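 Transformed Rat2 fibroblasts (H-Ras or H-Ras/K-Ras polybasic-tail fusion) treated with compound in 1% DMSO; after 4 h labelled with [35S]methionine 150 μCi/ml for 20 h. Lysates immunoprecipitated with anti-Ras Y13-259, resolved by 13.5% SDS-PAGE and autoradiography; CIC50 = concentration inhibiting 50% of Ras farnesylation from band intensities.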

Experiment [2] addresses T1, Ras farnesyl transferase. The experiment can be described thus: In vivo (cellular) inhibitory activity for Ras farnesyl transferase, Rat2 cell line which expresses C-Harvey-Ras protein. The class given is cell-based. The conditions noted are these: Rat2 cell line expressing C-Harvey-Ras; concentration inhibiting 50% of farnesyl bonding of Ras protein; read-out: H-Ras CIC50. The gist of the method:
as §1

In experiment [3] the target is T2, Ras farnesyl transferase (Homo sapiens, UniProt P49354+P49356).
T2 construct: made in house
The experiment can be described thus: In vitro inhibitory activity for Ras farnesyl transferase, H-Ras substrate. The class given is biochemical. The conditions noted are these: recombinant farnesyl transferase 4.5 nM, Ras substrate protein 1.5 μM, tritium-farnesylpyrophosphate 0.15 μM, 30 minutes at 37° C.; read-out: H-Ras IC50.

In experiment [4] the target is T2, Ras farnesyl transferase. Nature of the experiment: In vitro inhibitory activity for Ras farnesyl transferase, K-Ras substrate. In kind it is biochemical. The conditions noted are these: in vitro farnesyl transferase assay, K-Ras; read-out: K-Ras IC50.

For the compound `O=C(c1cn(Cc2c[nH]cn2)cc1-c1ccc2c3c(cccc13)CC2)N1CCOCC1` [Compound 97], the IC50 on Ras farnesyl transferase [1] is 10 to 100 µM; on Ras farnesyl transferase [2], 10000 to 100000 nM; on Ras farnesyl transferase [3] it was 12000 nM; at Ras farnesyl transferase [4] it was 10000 to 100000 nM.
On to `N#Cc1ccc(CNC(=O)c2cn(Cc3c[nH]cn3)cc2-c2cccc3ccccc23)cc1` [Compound 98], for which the IC50 at Ras farnesyl transferase [1] was 10 to 100 µM; on Ras farnesyl transferase [2], 1000 to 50000 nM; on Ras farnesyl transferase [3], 900 nM; on Ras farnesyl transferase [4], 100 to 10000 nM.
Taken in the same sequence, the figures for `CSCC[C@H](NC(=O)c1cn(Cc2cncn2Cc2ccc(C#N)cc2)cc1-c1cccc2ccccc12)C(=O)O` [Compound 101, (S)-1-[1-(4-Cyanobenzyl)-1H-imidazol-5-yl]methyl-3-[N-(1-hydroxycarbonyl-3-methylthio)propyl]carbamoyl-4(naphthalen-1-yl)-1H-pyrrole] were more than 50 µM, more than 5000 nM, 10 nM and 800 nM.
In the case of `COC(=O)[C@H](CC(C)C)NC(=O)c1cn(Cc2cncn2Cc2ccc(C#N)cc2)cc1-c1cccc2ccccc12` [Compound 102], the IC50 at Ras farnesyl transferase [1] was more than 50 µM; on Ras farnesyl transferase [2], 1000 to 50000 nM; on Ras farnesyl transferase [3], 450 nM; on Ras farnesyl transferase [4], 22000 nM.
Taken in the same sequence, the figures for `CC(C)C[C@H](NC(=O)c1cn(Cc2cncn2Cc2ccc(C#N)cc2)cc1-c1cccc2ccccc12)C(=O)O` [Compound 103] were 10 to 100 µM, 100 to 10000 nM, 64 nM and 1700 nM.
Taken in the same sequence, the figures for `N#Cc1ccc(Cn2cncc2Cn2cc(C(=O)N3CCOCC3)c(-c3cccc4ccccc34)c2)cc1` [Compound 104] were less than 10 µM, less than 50 nM, 0.5 nM and 6 nM.
The matching figures for `CN1CCN(C(=O)c2cn(Cc3cncn3Cc3ccc(C#N)cc3)cc2-c2cccc3ccccc23)CC1` [Compound 105]: more than 50 µM, 50 nM, 0.4 nM and 90 nM.
In the case of `O=C(c1cn(CCn2ccnc2)cc1-c1cccc2ccccc12)N1CCOCC1` [Compound 106], the IC50 at Ras farnesyl transferase [1] is 10 to 100 µM; on Ras farnesyl transferase [2], 1000 to 50000 nM; at Ras farnesyl transferase [3] it was 900 nM; on Ras farnesyl transferase [4], 10000 to 100000 nM.
Taken in the same sequence, the figures for `COC(=O)[C@H](CCSC)NC(=O)c1cn(CCCc2c[nH]cn2)cc1-c1cccc2ccccc12` [Compound 107, (S)-1-[3-(1H-Imidazol-4-yl)propyl]-3-[1N-(1-methoxycarbonyl-3-methylthio)propyl]carbamoyl-4-(naphthalen-1-yl)-1H-pyrrole] were 10 to 100 µM, 1000 to 50000 nM, 10000 nM and 100 to 10000 nM.
Taken in the same sequence, the figures for `CSCC[C@H](NC(=O)c1cn(CCCc2c[nH]cn2)cc1-c1cccc2ccccc12)C(=O)O` [Compound 108] were 10 to 100 µM, 1000 to 50000 nM, 260 nM and 100 to 10000 nM.
Consider `O=C(c1cn(CCCc2c[nH]cn2)cc1-c1cccc2ccccc12)N1CCOCC1` [Compound 109], for which the IC50 on Ras farnesyl transferase [1] is 10 to 100 µM; on Ras farnesyl transferase [2] it was 1000 to 50000 nM; at Ras farnesyl transferase [3], 8600 nM; on Ras farnesyl transferase [4] it was 1000 to 50000 nM.
In the case of `COCCN(C)C(=O)c1cn(Cc2cncn2Cc2ccc(Br)cc2)cc1-c1cccc2ccccc12` [Compound 111, 1-[1-(4-Bromobenzyl)-1H-imidazol-5-yl]methyl-3-[N-(2-methoxyethyl)-N-methyl]carbamoyl-4-(naphthalen-1-yl)-1H-pyrrole], the IC50 amounted to 4 µM at Ras farnesyl transferase [1], 30 nM on Ras farnesyl transferase [2], 2 nM on Ras farnesyl transferase [3] and 2 nM on Ras farnesyl transferase [4].
In the case of `N#Cc1ccc(Cn2cncc2Cn2cc(C(=S)N3CCOCC3)c(-c3cccc4ccccc34)c2)cc1` [Compound 113, 1-[1-(4-Cyanobenzyl)-1H-imidazol-5-yl]methyl-3-(morpholin-4-yl)thiocarbonyl-4-(naphthalen-1-yl)-1H-pyrrole], the IC50 at Ras farnesyl transferase [1] was 10 to 100 µM; on Ras farnesyl transferase [2] it was less than 100 nM; on Ras farnesyl transferase [3], 4 nM; at Ras farnesyl transferase [4] it was less than 100 nM.
`COCCN(C)C(=O)c1cn(Cc2cncn2C)cc1-c1cccc2ccccc12` [Compound 114, 3-[N-(2-Methoxyethyl)-N-methyl]carbamoyl-1-(1-methyl-1H-imidazol-5-yl)methyl-4-(naphthalen-1-yl)-1H-pyrrole]: the IC50 at Ras farnesyl transferase [1] is less than 100 µM; at Ras farnesyl transferase [2], 15 nM; on Ras farnesyl transferase [3], 1 nM; on Ras farnesyl transferase [4], 100 nM.
Regarding `COCCN(C)C(=O)c1cn(Cc2cncn2CC(C)C)cc1-c1cccc2ccccc12` [Compound 115, 1-(1-Isobutyl-1H-imidazol-5-yl)methyl-3-[N-(2-methoxyethyl)-N-methyl]carbamoyl-4-(naphthalen-1-yl)-1H-pyrrole], the IC50 on Ras farnesyl transferase [1] was less than 50 µM; at Ras farnesyl transferase [2] it was 25 nM; at Ras farnesyl transferase [3], 2 nM; at Ras farnesyl transferase [4], 35 nM.
Taken in the same sequence, the figures for `COCCN(C)C(=O)c1cn(Cc2cncn2CC2CCCCC2)cc1-c1cccc2ccccc12` [Compound 116, 1-(1-Cyclohexylmethyl-1H-imidazol-5-yl)methyl-3-[N-(2-methoxyethyl)-N-methyl]carbamoyl-4-(naphthalen-1-yl)-1H-pyrrole] were less than 50 µM, 30 nM, 4 nM and 62 nM.
The matching figures for `CN1CCN(C(=O)c2cn(Cc3cncn3Cc3ccc(Br)cc3)cc2-c2cccc3ccccc23)CC1` [Compound 125, 1-[1-(4-Bromobenzyl)-1H-imidazol-5-yl]methyl-3-[4-methylpiperazin-1-yl]carbonyl-4-(naphthalen-1-yl)-1H-pyrrole]: 4 µM, 6 nM, 2 nM and 4 nM.
The matching figures for `CN1CCN(C(=O)c2cn(Cc3cncn3Cc3ccc(Cl)cc3)cc2-c2cccc3ccccc23)CC1` [Compound 126, 1-[1-(4-Chlorobenzyl)-1H-imidazol-5-yl]methyl-3-[4-methylpiperazin-1-yl]carbonyl-4-(naphthalen-1-yl)-1H-pyrrole]: 5 µM, 12 nM, 1 nM and 4 nM.
Consider `COCCN(C)C(=O)c1cn(Cc2cncn2Cc2ccc(F)cc2)cc1-c1cccc2ccccc12` [Compound 127, 1-[1-(4-fluorobenzyl)-1H-imidazol-5-yl]methyl-3[N-(2-methoxyethyl)-N-methyl]carbamoyl-4-(naphthalen-1-yl)-1H-pyrrole], for which the IC50 was found to be 5 µM at Ras farnesyl transferase [1], 15 nM at Ras farnesyl transferase [2], 2 nM on Ras farnesyl transferase [3] and 5 nM at Ras farnesyl transferase [4].
The matching figures for `CN1CCN(C(=O)c2cn(Cc3cncn3Cc3ccc(F)cc3)cc2-c2cccc3ccccc23)CC1` [Compound 128, 1-[1-(4-fluorobenzyl)-1H-imidazol-5-yl]methyl-3-[4-methylpiperazin-1-yl]carbonyl-4-(naphthalen-1-yl)-1H-pyrrole]: 5 µM, 10 nM, 2 nM and 10 nM.
Taken in the same sequence, the figures for `COc1ccc(Cn2cncc2Cn2cc(C(=O)N3CCN(C)CC3)c(-c3cccc4ccccc34)c2)cc1` [Compound 130, 1-[1-(4-Methoxybenzyl)-1H-imidazol-5-yl] methyl-3-(4-methylpiperazin-1-yl)carbonyl-4-(naphthalen-1-yl)-1H-pyrrole] were 10 to 50 µM, 25 nM, 2 nM and 3 nM.
Taken in the same sequence, the figures for `CN1CCN(C(=O)c2cn(Cc3cncn3Cc3cccc(Cl)c3)cc2-c2cccc3ccccc23)CC1` [Compound 131, 1-[1-(3-Chlorobenzyl)-1H-imidazol-5-yl]methyl-3-(4-methylpiperazin-1-yl)carbonyl-4-(naphthalen-1-yl)-1H-pyrrole] were 10 to 50 µM, 12.5 nM, 1 nM and 2.3 nM.
For `COCCN(C)C(=O)c1cn(Cc2cncn2Cc2cccc(Cl)c2)cc1-c1cccc2ccccc12` [Compound 132, 1-[1-(3-Chlorobenzyl)-1H-imidazol-5-yl]methyl-3-[N-(2-methoxyethyl)-N-methyl]carbamoyl-4-(naphthalen-1-yl)-1H-pyrrole], the IC50 on Ras farnesyl transferase [1] was 10 to 50 µM; at Ras farnesyl transferase [2] it was 25 nM; on Ras farnesyl transferase [3], 3.5 nM; on Ras farnesyl transferase [4], 11 nM.
Taken in the same sequence, the figures for `CN1CCN(C(=O)c2cn(Cc3cncn3Cc3ccccc3Cl)cc2-c2cccc3ccccc23)CC1` [Compound 133, 1-[1-(2-Chlorobenzyl)-1H-imidazol-5-yl]methyl-3-(4-methylpiperazin-1-yl)carbonyl-4-(naphthalen-1-yl)-1H-pyrrole] were 10 to 50 µM, 25 nM, 0.65 nM and 2 nM.
